# According to ChEMBL document CHEMBL1137358, “Synthetic inhibitors of cytochrome P-450 2A6: inhibitory activity, difference spectra, mechanism of inhibition, and protein cocrystallization” (J Med Chem, 2006):
# Target: T1, Cytochrome P450 2B6 (Homo sapiens, UniProt P20813)
# T1 sequence (P20813 whole entry): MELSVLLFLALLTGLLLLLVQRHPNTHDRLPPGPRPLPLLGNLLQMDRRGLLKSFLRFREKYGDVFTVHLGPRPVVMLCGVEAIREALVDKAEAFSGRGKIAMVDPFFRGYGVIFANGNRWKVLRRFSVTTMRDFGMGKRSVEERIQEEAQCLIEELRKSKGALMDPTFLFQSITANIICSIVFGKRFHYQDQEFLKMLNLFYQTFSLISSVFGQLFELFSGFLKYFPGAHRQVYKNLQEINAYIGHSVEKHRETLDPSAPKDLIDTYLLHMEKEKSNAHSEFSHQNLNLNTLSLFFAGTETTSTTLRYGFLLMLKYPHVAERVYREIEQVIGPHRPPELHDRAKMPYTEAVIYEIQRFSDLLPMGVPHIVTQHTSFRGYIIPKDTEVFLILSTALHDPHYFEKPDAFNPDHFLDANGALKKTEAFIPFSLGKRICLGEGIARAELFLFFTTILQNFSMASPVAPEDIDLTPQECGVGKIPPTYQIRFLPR
# Test: Inhibition of human CYP2B6
# Conditions: not given
row,Structure (SMILES),Ki [µM]
1,CNCC#Cc1cccnc1,60
2,NCc1ccc(-c2cccnc2)o1,95.5
3,c1cncc(-c2c[nH]cn2)c1,51.5
4,CNCc1ccc(-c2cccnc2)o1,179
5,Cc1ccsc1-c1ccc(F)nc1,5.9
6,Cc1cscc1-c1cccnc1,3.1
7,NCc1ccc(-c2ccccc2)o1,3.8
8,CSCc1ccc(-c2cccnc2)o1,46.9
9,NCc1ccc(-c2ccccc2)s1,0.6
10,Cc1cscc1-c1ccccc1,5.1

# System: CYP2A6 over CYP2C19
# Test: Selectivity for CYP2A6 over CYP2C19
# Conditions: human
row,Structure (SMILES),selectivity ratio
1,CNCC#Cc1cccnc1,6.1
2,NCc1ccc(-c2cccnc2)o1,81
3,c1cncc(-c2c[nH]cn2)c1,35
4,CNCc1ccc(-c2cccnc2)o1,19
5,Cc1ccsc1-c1ccc(F)nc1,32
6,NCc1ccc(-c2ccccc2)o1,6.8
7,CSCc1ccc(-c2cccnc2)o1,8.8
8,NCc1ccc(-c2ccccc2)s1,1.4
9,Cc1cscc1-c1ccccc1,32.3

# System: CYP2A6 over CYP2D6
# Test: Selectivity for CYP2A6 over CYP2D6
# Conditions: human
row,Structure (SMILES),selectivity ratio
1,CNCC#Cc1cccnc1,> 74
2,NCc1ccc(-c2cccnc2)o1,42
3,c1cncc(-c2c[nH]cn2)c1,133
4,CNCc1ccc(-c2cccnc2)o1,57
5,Cc1ccsc1-c1ccc(F)nc1,> 310
6,NCc1ccc(-c2ccccc2)o1,24.6
7,CSCc1ccc(-c2cccnc2)o1,81
8,NCc1ccc(-c2ccccc2)s1,> 333
9,Cc1cscc1-c1ccccc1,60.6

# Target: Cytochrome P450 3A4 (Homo sapiens, UniProt P08684)
# Test: Inhibition of human CYP3A4
# Conditions: not given
# Sequence of Cytochrome P450 3A4 (P08684 whole entry): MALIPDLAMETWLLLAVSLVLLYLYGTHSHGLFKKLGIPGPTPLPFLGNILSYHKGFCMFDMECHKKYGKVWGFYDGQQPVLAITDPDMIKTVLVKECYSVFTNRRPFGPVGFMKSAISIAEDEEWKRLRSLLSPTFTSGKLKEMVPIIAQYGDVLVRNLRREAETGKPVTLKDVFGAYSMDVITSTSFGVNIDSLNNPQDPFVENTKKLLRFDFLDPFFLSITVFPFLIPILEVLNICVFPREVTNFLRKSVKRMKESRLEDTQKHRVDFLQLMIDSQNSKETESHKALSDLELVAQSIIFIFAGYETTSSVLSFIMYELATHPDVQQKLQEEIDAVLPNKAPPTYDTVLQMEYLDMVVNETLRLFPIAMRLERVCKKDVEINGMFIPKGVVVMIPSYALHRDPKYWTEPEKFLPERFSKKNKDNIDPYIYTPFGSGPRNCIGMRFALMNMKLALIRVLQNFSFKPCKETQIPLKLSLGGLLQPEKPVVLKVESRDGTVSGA
row,Structure (SMILES),Ki [µM]
1,CNCC#Cc1cccnc1,251
2,NCc1ccc(-c2cccnc2)o1,23.6
3,c1cncc(-c2c[nH]cn2)c1,70
4,CNCc1ccc(-c2cccnc2)o1,> 400
5,Cc1ccsc1-c1ccc(F)nc1,19.6
6,Cc1cscc1-c1cccnc1,< 25
7,NCc1ccc(-c2ccccc2)o1,63
8,CSCc1ccc(-c2cccnc2)o1,7.4
9,NCc1ccc(-c2ccccc2)s1,95.5
10,Cc1cscc1-c1ccccc1,> 400

# System: CYP2A6 over CYP3A4
# Test: Selectivity for CYP2A6 over CYP3A4
# Conditions: human
row,Structure (SMILES),selectivity ratio
1,CNCC#Cc1cccnc1,92.8
2,c1cncc(-c2c[nH]cn2)c1,93
3,CNCc1ccc(-c2cccnc2)o1,> 250
4,Cc1ccsc1-c1ccc(F)nc1,5.9
5,NCc1ccc(-c2ccccc2)o1,105
6,CSCc1ccc(-c2cccnc2)o1,9.2
7,NCc1ccc(-c2ccccc2)s1,159
8,Cc1cscc1-c1ccccc1,> 400

# System: CYP2A6 over CYP2C9
# Test: Selectivity for CYP2A6 over CYP2C9
# Conditions: human
row,Structure (SMILES),selectivity ratio
1,CNCC#Cc1cccnc1,2.3
2,NCc1ccc(-c2cccnc2)o1,43
3,c1cncc(-c2c[nH]cn2)c1,28
4,CNCc1ccc(-c2cccnc2)o1,48
5,Cc1ccsc1-c1ccc(F)nc1,> 310
6,NCc1ccc(-c2ccccc2)o1,1.5
7,CSCc1ccc(-c2cccnc2)o1,18
8,NCc1ccc(-c2ccccc2)s1,0.8
9,Cc1cscc1-c1ccccc1,33.9

# System: not listed separately
# Test: (§1) Stability in mouse liver microsome
# Conditions: liver microsomes
row,Structure (SMILES),half-life [min]
1,CNCC#Cc1cccnc1,123
2,NCc1ccc(-c2cccnc2)o1,37
3,c1cncc(-c2c[nH]cn2)c1,698
4,Cc1cscc1-c1cccnc1,47

# Same assay, conditions: microsomes
row,Structure (SMILES),half-life [min]
1,NCc1ccc(-c2ccccc2)o1,22
2,CSCc1ccc(-c2cccnc2)o1,38
3,NCc1ccc(-c2ccccc2)s1,41
4,Cc1cscc1-c1ccccc1,37

# Species: Mus musculus
# Test: as §1
# Conditions: microsomes
row,Structure (SMILES),Stability
1,CNCc1ccc(-c2cccnc2)o1,Stable
2,Cc1ccsc1-c1ccc(F)nc1,Stable

# System: CYP2A6 over CYP2B6
# Test: Selectivity for CYP2A6 over CYP2B6
# Conditions: not given
row,Structure (SMILES),selectivity ratio
1,CNCC#Cc1cccnc1,22.2
2,c1cncc(-c2c[nH]cn2)c1,69
3,Cc1ccsc1-c1ccc(F)nc1,9.1
4,NCc1ccc(-c2ccccc2)o1,6.4
5,CSCc1ccc(-c2cccnc2)o1,59
6,NCc1ccc(-c2ccccc2)s1,1.1
7,Cc1cscc1-c1ccccc1,4.2

# Target: Cytochrome P450 2D6 (Homo sapiens, UniProt P10635)
# Test: Inhibition of human CYP2D6
# Conditions: not given
# Sequence of Cytochrome P450 2D6 (P10635 whole entry): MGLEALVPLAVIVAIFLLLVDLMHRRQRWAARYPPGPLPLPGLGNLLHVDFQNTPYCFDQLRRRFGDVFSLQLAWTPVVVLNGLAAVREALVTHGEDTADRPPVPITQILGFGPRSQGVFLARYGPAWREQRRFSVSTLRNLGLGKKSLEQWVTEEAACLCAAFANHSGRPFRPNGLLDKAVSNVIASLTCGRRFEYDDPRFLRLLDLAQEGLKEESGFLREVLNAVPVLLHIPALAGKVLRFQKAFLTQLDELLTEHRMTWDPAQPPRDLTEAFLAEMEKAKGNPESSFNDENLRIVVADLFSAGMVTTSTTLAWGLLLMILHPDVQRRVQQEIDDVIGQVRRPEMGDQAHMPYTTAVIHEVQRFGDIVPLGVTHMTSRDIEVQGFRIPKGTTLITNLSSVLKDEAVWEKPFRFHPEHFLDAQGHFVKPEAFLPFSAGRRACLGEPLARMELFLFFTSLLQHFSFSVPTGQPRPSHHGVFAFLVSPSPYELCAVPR
row,Structure (SMILES),Ki [µM]
1,CNCC#Cc1cccnc1,> 400
2,NCc1ccc(-c2cccnc2)o1,5.7
3,c1cncc(-c2c[nH]cn2)c1,100
4,CNCc1ccc(-c2cccnc2)o1,45.3
5,Cc1ccsc1-c1ccc(F)nc1,> 400
6,Cc1cscc1-c1cccnc1,96.5
7,NCc1ccc(-c2ccccc2)o1,14.8
8,CSCc1ccc(-c2cccnc2)o1,64.5
9,NCc1ccc(-c2ccccc2)s1,> 400
10,Cc1cscc1-c1ccccc1,> 400

# Target: Cytochrome P450 2C19 (Homo sapiens, UniProt P33261)
# Test: Inhibition of human CYP2C19
# Conditions: not given
# Sequence of Cytochrome P450 2C19 (P33261 whole entry): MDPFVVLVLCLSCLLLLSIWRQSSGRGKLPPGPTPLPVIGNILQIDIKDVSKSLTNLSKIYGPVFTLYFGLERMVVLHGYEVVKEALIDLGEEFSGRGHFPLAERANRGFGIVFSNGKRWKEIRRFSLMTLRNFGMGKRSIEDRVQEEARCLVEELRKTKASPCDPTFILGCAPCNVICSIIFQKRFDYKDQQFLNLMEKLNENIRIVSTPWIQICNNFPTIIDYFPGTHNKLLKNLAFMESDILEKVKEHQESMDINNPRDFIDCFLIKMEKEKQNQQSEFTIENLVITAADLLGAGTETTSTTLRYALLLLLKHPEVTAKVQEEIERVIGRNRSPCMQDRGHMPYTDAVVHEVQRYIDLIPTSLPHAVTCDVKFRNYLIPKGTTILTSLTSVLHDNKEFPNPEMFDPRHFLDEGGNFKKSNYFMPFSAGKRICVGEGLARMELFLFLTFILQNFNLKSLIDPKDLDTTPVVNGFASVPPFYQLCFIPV
row,Structure (SMILES),Ki [µM]
1,CNCC#Cc1cccnc1,16.4
2,NCc1ccc(-c2cccnc2)o1,11
3,c1cncc(-c2c[nH]cn2)c1,26.8
4,CNCc1ccc(-c2cccnc2)o1,15.3
5,Cc1ccsc1-c1ccc(F)nc1,21
6,Cc1cscc1-c1cccnc1,12.5
7,NCc1ccc(-c2ccccc2)o1,41
8,CSCc1ccc(-c2cccnc2)o1,7
9,NCc1ccc(-c2ccccc2)s1,0.9
10,Cc1cscc1-c1ccccc1,> 400

# Target: Cytochrome P450 2C9 (Homo sapiens, UniProt P11712)
# Test: Inhibition of human CYP2C9
# Conditions: not given
# Sequence of Cytochrome P450 2C9 (P11712 whole entry): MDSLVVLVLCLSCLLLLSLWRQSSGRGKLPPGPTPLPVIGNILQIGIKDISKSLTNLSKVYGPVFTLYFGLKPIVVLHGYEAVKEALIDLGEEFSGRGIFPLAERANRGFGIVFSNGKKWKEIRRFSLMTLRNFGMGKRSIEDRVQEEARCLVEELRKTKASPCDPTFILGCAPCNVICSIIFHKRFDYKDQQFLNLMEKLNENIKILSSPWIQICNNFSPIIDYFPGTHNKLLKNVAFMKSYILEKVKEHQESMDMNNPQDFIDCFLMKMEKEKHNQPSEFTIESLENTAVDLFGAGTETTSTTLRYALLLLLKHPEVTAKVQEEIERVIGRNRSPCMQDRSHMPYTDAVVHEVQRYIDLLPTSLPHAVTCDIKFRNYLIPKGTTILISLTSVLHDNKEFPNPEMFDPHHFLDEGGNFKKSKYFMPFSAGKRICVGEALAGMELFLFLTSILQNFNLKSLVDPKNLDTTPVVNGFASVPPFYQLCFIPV
row,Structure (SMILES),Ki [µM]
1,CNCC#Cc1cccnc1,6.3
2,NCc1ccc(-c2cccnc2)o1,5.9
3,c1cncc(-c2c[nH]cn2)c1,20.9
4,CNCc1ccc(-c2cccnc2)o1,38.1
5,Cc1ccsc1-c1ccc(F)nc1,> 400
6,Cc1cscc1-c1cccnc1,61.5
7,NCc1ccc(-c2ccccc2)o1,0.9
8,CSCc1ccc(-c2cccnc2)o1,14.1
9,NCc1ccc(-c2ccccc2)s1,0.5
10,Cc1cscc1-c1ccccc1,> 400

# Target: Cytochrome P450 2E1 (Homo sapiens, UniProt P05181)
# Test: Inhibition of human CYP2E1
# Conditions: not given
# Sequence of Cytochrome P450 2E1 (P05181 whole entry): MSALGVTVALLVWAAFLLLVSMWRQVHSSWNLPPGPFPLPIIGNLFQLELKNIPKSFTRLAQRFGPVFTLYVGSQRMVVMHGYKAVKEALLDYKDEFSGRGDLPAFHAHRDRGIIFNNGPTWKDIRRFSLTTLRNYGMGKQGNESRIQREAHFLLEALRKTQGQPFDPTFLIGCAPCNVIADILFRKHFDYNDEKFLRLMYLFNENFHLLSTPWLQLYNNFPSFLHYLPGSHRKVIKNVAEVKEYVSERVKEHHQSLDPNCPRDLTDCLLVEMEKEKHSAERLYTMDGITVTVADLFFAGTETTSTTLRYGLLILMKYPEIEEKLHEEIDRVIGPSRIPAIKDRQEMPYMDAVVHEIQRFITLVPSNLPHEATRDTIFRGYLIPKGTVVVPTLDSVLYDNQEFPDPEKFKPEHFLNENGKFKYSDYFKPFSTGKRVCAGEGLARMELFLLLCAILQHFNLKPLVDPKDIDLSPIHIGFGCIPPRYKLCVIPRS
row,Structure (SMILES),Ki [µM]
1,CNCC#Cc1cccnc1,117
2,NCc1ccc(-c2cccnc2)o1,86
3,c1cncc(-c2c[nH]cn2)c1,12.8
4,CNCc1ccc(-c2cccnc2)o1,> 400
5,Cc1ccsc1-c1ccc(F)nc1,184
6,Cc1cscc1-c1cccnc1,3.1
7,NCc1ccc(-c2ccccc2)o1,0.8
8,CSCc1ccc(-c2cccnc2)o1,0.8
9,NCc1ccc(-c2ccccc2)s1,0.04
10,Cc1cscc1-c1ccccc1,> 400

# System: CYP2A6 over CYP2E1
# Test: Selectivity for CYP2A6 over CYP2E1
# Conditions: human
row,Structure (SMILES),selectivity ratio
1,CNCC#Cc1cccnc1,43.1
2,c1cncc(-c2c[nH]cn2)c1,17
3,CNCc1ccc(-c2cccnc2)o1,> 250
4,Cc1ccsc1-c1ccc(F)nc1,285
5,NCc1ccc(-c2ccccc2)o1,1.3
6,CSCc1ccc(-c2cccnc2)o1,0.9
7,NCc1ccc(-c2ccccc2)s1,0.1
8,Cc1cscc1-c1ccccc1,2.9

# Target: T2, Cytochrome P450 2A6 (Homo sapiens, UniProt P11509)
# T2 sequence (P11509 whole entry): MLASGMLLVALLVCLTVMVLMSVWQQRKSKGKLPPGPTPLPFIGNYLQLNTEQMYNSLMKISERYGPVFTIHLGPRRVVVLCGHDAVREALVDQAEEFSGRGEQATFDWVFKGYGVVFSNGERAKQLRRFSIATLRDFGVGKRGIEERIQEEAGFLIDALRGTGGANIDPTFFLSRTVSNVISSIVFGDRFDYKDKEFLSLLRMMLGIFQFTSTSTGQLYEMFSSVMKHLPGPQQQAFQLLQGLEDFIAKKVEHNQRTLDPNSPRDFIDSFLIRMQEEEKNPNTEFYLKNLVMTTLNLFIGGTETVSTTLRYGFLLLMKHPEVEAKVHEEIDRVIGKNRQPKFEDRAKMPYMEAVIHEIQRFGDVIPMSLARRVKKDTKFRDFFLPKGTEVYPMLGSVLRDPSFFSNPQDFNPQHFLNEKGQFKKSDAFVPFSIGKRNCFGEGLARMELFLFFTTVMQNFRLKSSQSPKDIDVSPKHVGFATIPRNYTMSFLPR
# Test: Inhibition of human CYP2A6
# Conditions: not given
row,Structure (SMILES),Ki [µM]
1,CNCC#Cc1cccnc1,2.7
2,c1cncc(-c2c[nH]cn2)c1,0.8
3,CNCc1ccc(-c2cccnc2)o1,0.8
4,Cc1ccsc1-c1ccc(F)nc1,0.6
5,Cc1cscc1-c1cccnc1,0.9
6,NCc1ccc(-c2ccccc2)o1,0.6
7,CSCc1ccc(-c2cccnc2)o1,0.8
8,NCc1ccc(-c2ccccc2)s1,0.6
9,Cc1cscc1-c1ccccc1,6.2

# System: not listed separately
# Test: (§2) Stability in human liver microsome
# Conditions: liver microsomes
row,Structure (SMILES),half-life [min]
1,CNCC#Cc1cccnc1,136
2,NCc1ccc(-c2cccnc2)o1,37
3,c1cncc(-c2c[nH]cn2)c1,701
4,CNCc1ccc(-c2cccnc2)o1,66
5,Cc1ccsc1-c1ccc(F)nc1,84

# Same assay, conditions: microsomes
row,Structure (SMILES),half-life [min]
1,NCc1ccc(-c2ccccc2)o1,37
2,CSCc1ccc(-c2cccnc2)o1,59
3,NCc1ccc(-c2ccccc2)s1,84
4,Cc1cscc1-c1ccccc1,74

# System: Liver microsomes
# Test: as §2
# Conditions: microsomes
row,Structure (SMILES),T1/2 [min]
1,Cc1cscc1-c1cccnc1,32
